US20150335678A1, “METHOD OF ACTIVATING STEM CELLS IN AN ANIMAL AND THE USE OF CHLORINE DIOXIDE FOR PREPARING MEDICINES FOR ACTIVATING STEM CELLS IN AN ANIMAL” (priority 2012, published 2015)

Tests used:
[1] = tested on: CD34-positive/CD31-positive mononuclear cells; assay: CD34-positive/CD31-positive mononuclear cells in peripheral blood of lower limb DVT patients, flow cytometry; format: in vivo, human; details: before administration 0.28 ± 0.30, diluted solution 10 ml/body/day femoral artery puncture, 14 days
Description: The subjects consisted of 14 male and 6 female lower limb DVT patients with the unilateral limb suffer from the illness, aged from 59 to 76 years old (average age: 67.2 years old). The purpose of the clinical test was explained to all subjects and their consent was obtained before conducting the clinical test.
The first solution was a mixed solution made of sodium chlorite with the concentration of 7.47% and sodium chloride with the concentration of 1.59% with deionized water; the second solution was made of citric acid with the concentration of 16.7% with deionized water. Same volume of solutions were taken out from different vessels with different volumes and mixed up. […]
Five ml of peripheral blood was collected from the median cubital vein of the forearm of each patient using low molecular weight heparin anticoagulant before administration (before initial administration) and on day 7 and 14 after administration, and the collected blood was immediately stored at 4° C. and measured within 6 hours after collection. […]
CD34-positive mononuclear cells/CD31-positive mononuclear cells were isolated by double immunofluorescent using flow cytometry. […] Next, CD34/CD31-positive mononuclear cells were isolated and counted by flow cytometry. The ratio (%) of CD34/CD 31-positive mononuclear cells among the mononuclear cells was calculated according to the following formula. […]

[2] = tested on: BrdU-positive cells (neural stem cells and neural progenitor cells); assay: BrdU-positive and BrdU-positive/nestin-positive (proliferating) cells in the SVZ region; format: in vivo, Sprague-Dawley rats; details: for number of BrdU-positive cells in the SVZ region, proliferation (mean±SD): BrdU on day 5, 6, 12, 13, 19, 20
Method: (§1) Male Sprague-Dawley rats with the age of 12 weeks and weight of 250^˜280 g were used in the experiment after acclimating for a week.
(§2) A middle cerebral artery occlusion model was first established in compliance with the method of Longa E Z et al. (Longa E Z, et al. Reversible middle cerebral artery occlusion without craniectomy in rats. Stroke 20:84-91, 1989). More specifically, 0.36 g/kg of 10% chloral hydrate was administered intraperitoneally to rats which had been fasted for 12 hours (although given free access to water) to anesthetize the rats. Next, a midline incision was made in the neck to expose the right common carotid artery. Then, the internal carotid artery and external carotid artery were separated, the posterior carotid artery, which is a branch of the external carotid artery, and the thyroidea arteria were coagulated and severed, the external carotid artery was ligated at the branch of the lingual artery and maxillary artery, a small puncture was formed in the external carotid artery, 4-0 Nylon suture was passed through the common carotid artery from the puncture, and gradually inserted into the internal carotid artery until there was resistance. The length of the Nylon suture was about 18^˜20 mm from the branch of the common carotid artery. As a result of occluding the middle cerebral artery with Nylon suture, an ischemic state was applied for 2 hours to create a middle cerebral artery occlusion model.
(§3) A cerebral ischemia/reperfusion injury model was established by removing the Nylon suture from the middle cerebral artery of the occlusion model and following reperfusion of blood.
(§4) The first solution was a mixed solution made of sodium chlorite with the concentration of 7.47% and sodium chloride with the concentration of 1.59% with deionized water; the second solution was made of citric acid with the concentration of 16.7% with deionized water. Same volume of solutions were taken out from different vessels with different volumes and mixed up. Allow the solution to mix for 3-5 minutes and dilute it five times with normal saline, and then filter it with 0.22 μm filter membrane of double-deck. The solution was immediately put into injector. The solution was prepared once being used.
(§5) Treatment group (120 rats): A cerebral ischemia/reperfusion injury model was established for the rats already. To administer chlorine dioxide solution everytime that prepared from procedure (3) through carotid artery after the second day the model has established, once a day for total ten days.
On day 5, 6, 12, 13, 19 and 20 after the model established, 50 mg/kg of 5-bromodeoxyuridine was injected intraperitoneally into 30 rats in each group. Because BrdU is a thymidine analog, it can incorporate into the DNA of cells during the course of cell proliferation (DNA synthesis). Thus, cell proliferation can be analyzed by detecting the amount of intracellular BrdU. The rats were autopsied on day 7, 14 and 21 after the model established for preparation of frozen brain sections. The presence of BrdU-positive cells by immunochemical stain, and the presence of BrdU-positive/nestin-positive cells by double-immunofluorescent stain in the SVZ region were analyzed.
The presence of BrdU-positive cells was analyzed using mouse anti-rat BrdU monoclonal antibody.
The presence of BrdU-positive/nestin-positive cells was analyzed by double-immunofluorescent stain using a combination of primary antibody of goat anti-rat BrdU polyclonal antibody and secondary antibody of FITC-labeled rabbit anti-goat antibody, and a combination of primary antibody of mouse anti-rat nestin monoclonal antibody and secondary antibody of Rho-labeled rabbit anti-mouse antibody.
(§6) BRt(%)=(Bt−St)/(Mt−St)×100

[3] = tested on: postoperative complications of lung cancer; assay: Postoperative complications of lung cancer (Example 12); format: in vivo, human; details: 15 patients
Method: The subjects consisted of 30 lung cancer patients of stage I, II III who had operations on lung cancer just now. The subjects were randomly assigned to treatment group and control group with 15 patients respectively.
[…] acid aqueous solution with a ph value of 3 was made by citric acid and deionized water. 500 ml aqueous solution of 30% was made with deionized water and sodium chlorite, 500 ml aqueous solution of 50% was made with deionized water and citric acid. To mix the above solutions in a conical beaker of 2 L capacity and then put them in the prepared acid aqueous solution by a plastic tube with bottle stopper. The activating agent of stem cells comprising chlorine dioxide was made by bubbling chlorine dioxide in the acid aqueous solution for 40 minutes and the solution was contained in 150 plastic bottles with 100 ml capacity and stored in the fridge.
Each patient in treatment group received 10 bottles of the solution. Open the plastic bottle cap and do alternate nostril breathing for 2-10 minutes on day 2 after the operation with a bottle a day for three times, then cover the bottleneck once finished. No special nursing means were applied in control group, then observe the complications a month after the operation.

[4] = tested on: BrdU-positive (migrating) cells; assay: BrdU-positive (migrating) cells in the SVZ region; format: in vivo, Sprague-Dawley rats; details: for number of BrdU-positive cells in the SVZ region, migration (mean±SD): BrdU twice within 24 hours after model established
Method: as §1, §2, §3, §4, §5
Thirty Rats in each group were intraperitoneally injected twice with 50 mg/kg of BrdU within 24 hours after model established. The rats were autopsied on day 7, 14 and 21 after model established for preparation of frozen brain sections. The presence of BrdU-positive cells in the SVZ region was analyzed by immunochemical stain using mouse anti-rat BrdU monoclonal antibody.
as §6

cartilage of hip joint = assay: Hip arthritis patients: thickness of cartilage of hip joint by ultrasonic scanning; format: in vivo, human; details: listed as activating agent of stem cells comprising a chlorine dioxide; for Medical cartilage thickness mean(±SD): before administration 0.51 (±0.07); for Lateral cartilage thickness mean(±SD): before administration 0.61 (±0.09)
Method: To smear the solution over the skin of hip arthritis with swab immediately, once a day for consecutive 20 days. Then stop the administration for three months, and then began continuous treatment for 20 days. Clean and disinfect the regions before treatment, conduct local anesthetic 30 minutes before the operation.
The subjects who joined in the treatment group as volunteers consisted of 11 patients with hip arthritis (5 male, aged from 40 to 70 years old and 6 female, aged from 40 to 65 years old.). Case histories were recorded at the third and the sixth month by collecting personal and data of human body (height, body weight, BMI, blood pressure and heart rate.) Then evaluate the following parameters:
Thickness of cartilage of hip joint: measured by ultrasonic scanning at the core, the center and the lateral.

Structure (SMILES): [O][Cl+][O-] [chlorine dioxide solution, chlorine dioxide]
- CD34-Positive/CD31-Positive Mononuclear Cells (ratio among mononuclear cells, mean±SD) ([1]; Day 7 after administration, n=20): 0.85 ± 0.51 %
- CD34-Positive/CD31-Positive Mononuclear Cells (ratio among mononuclear cells, mean±SD) ([1]; Day 14 after administration, n=15): 1.1 ± 0.65 %
- BRt: BrdU-positive cells (proliferation) in treatment group relative to model group = 100% ([2]; Day 7): 157.4%
- number of BrdU-positive cells in the SVZ region, proliferation (mean±SD) ([2]; Day 7, model group 136.56 ± 9.93, sham 52.8 ± 3.85, diluted solution via carotid artery once a day, ten days): 184.61 ± 12.3 No. cells/mm2
- BRt: BrdU-positive cells (proliferation) in treatment group relative to model group = 100% ([2]; Day 14): 156.9%
- number of BrdU-positive cells in the SVZ region, proliferation (mean±SD) ([2]; Day 14, model group 328.6 ± 12.5, sham 33.9 ± 2.95): 496.2 ± 30.6 No. cells/mm2
- BRt: BrdU-positive cells (proliferation) in treatment group relative to model group = 100% ([2]; Day 21): 141.2%
- number of BrdU-positive cells in the SVZ region, proliferation (mean±SD) ([2]; Day 21, model group 279.9 ± 12.8, sham 23.9 ± 1.95): 385.3 ± 20.9 No. cells/mm2
- presence of proliferating nestin-positive/BrdU-positive cells in the SVZ region ([2]; treatment group, double-immunofluorescent stain): confirmed
- Serious complications (No.) ([3]; a month after lung cancer operation, ClO2 gas bubbled into pH 3 citric acid solution, nostril breathing 2-10 minutes three times a day, 10 bottles, control 4 (26.7%)): 1
- No complication (No.) ([3]; a month after operation, inhalation, control 5 (33.3%)): 9
- Minor complications (No.) ([3]; a month after operation, inhalation, control 6 (40%)): 5
- Serious complications (%) ([3]; a month after operation, inhalation, control 26.7%): 6.7%
- No complication (%) ([3]; a month after operation, inhalation, control 33.3%): 60%
- Minor complications (%) ([3]; a month after operation, inhalation, control 40%): 33.3%
- BRt: BrdU-positive (migrating) cells in treatment group relative to model group = 100% ([4]; Day 7): 121.0%
- number of BrdU-positive cells in the SVZ region, migration (mean±SD) ([4]; Day 7, model group 136.56 ± 15.63, sham 2.85 ± 1.05, diluted solution via carotid artery once a day, ten days): 164.61 ± 16.3 No. cells/mm2
- BRt: BrdU-positive (migrating) cells in treatment group relative to model group = 100% ([4]; Day 14): 144.7%
- number of BrdU-positive cells in the SVZ region, migration (mean±SD) ([4]; Day 14, model group 78.6 ± 8.5, sham 3.39 ± 1.35): 112.2 ± 10.6 No. cells/mm2
- BRt: BrdU-positive (migrating) cells in treatment group relative to model group = 100% ([4]; Day 21): 227.1%
- number of BrdU-positive cells in the SVZ region, migration (mean±SD) ([4]; Day 21, model group 34.9 ± 5.48, sham 3.11 ± 1.05): 75.3 ± 8.39 No. cells/mm2
- distribution of BrdU-positive cells in SVZ region ([4]; treatment group, in model group only on the surface of the SVZ region): widely distributed from the surface to interior of the SVZ region
- Medical cartilage thickness mean(±SD) (cartilage of hip joint; sixth month): 0.66 (±0.16) mm
- Lateral cartilage thickness mean(±SD) (cartilage of hip joint; sixth month): 0.73 (±0.11) mm
- Central cartilage thickness mean (±SD) (cartilage of hip joint; sixth month, before administration 0.73 (±0.09)): 0.89 (±0.09) mm
- Central cartilage thickness, percentage increase (cartilage of hip joint; sixth month): 12.7%
- Lateral cartilage thickness, percentage increase (cartilage of hip joint; sixth month): 8.9%
- Medical cartilage thickness, percentage increase (cartilage of hip joint; sixth month): 11.9%
- Medical cartilage thickness mean(±SD) (cartilage of hip joint; third month, ultrasound, 11 hip arthritis patients, topical with DMSO): 0.59 (±0.08) mm
- Lateral cartilage thickness mean(±SD) (cartilage of hip joint; third month): 0.67 (±0.10) mm
- Central cartilage thickness, percentage increase (cartilage of hip joint; third month): 8.2%
- Lateral cartilage thickness, percentage increase (cartilage of hip joint; third month): 9.8%
- Medical cartilage thickness, percentage increase (cartilage of hip joint; third month): 15.6%
